Results published in the NIST ThermoML archive (doi:10.1016/j.jct.2010.11.007).
Numbers after ± are expanded uncertainties.

Assay: xn = mol fraction of the nth substance listed
Details: Liquid; for speed of sound: Sing-around technique in a fixed-path interferometer; for mass density: Vibrating tube method

C=CC(C)(O)CCC=C(C)C (stereo unspecified) [3,7-dimethyl-1,6-octadien-3-ol] + CCCO
Details	mass density, 283.15 K [kg/m3]	mass density, 298.15 K [kg/m3]	mass density, 313.15 K [kg/m3]	mass density, 328.15 K [kg/m3]	speed of sound, 283.15 K [m/s]	speed of sound, 298.15 K [m/s]	speed of sound, 313.15 K [m/s]	speed of sound, 328.15 K [m/s]
101 kPa, x1 = 0.0533	–	–	–	–	–	–	1171.9 ± 0.7	1121 ± 0.7
101 kPa, x1 = 0.0551	819.82 ± 0.13	807.92 ± 0.14	795.75 ± 0.14	783.12 ± 0.15	1274.4 ± 0.8	1222.4 ± 0.7	–	–
101 kPa, x1 = 0.1051	826.23 ± 0.13	814.32 ± 0.14	802.06 ± 0.14	789.69 ± 0.15	1288.6 ± 0.8	1236 ± 0.8	1184.2 ± 0.8	1132.6 ± 0.7
101 kPa, x1 = 0.2014	836.56 ± 0.14	824.59 ± 0.15	812.16 ± 0.15	799.39 ± 0.16	1308.8 ± 0.9	1255.7 ± 0.9	1203.6 ± 0.8	1151 ± 0.8
101 kPa, x1 = 0.3032	–	832.73 ± 0.17	–	807.41 ± 0.17	–	–	–	–
101 kPa, x1 = 0.3049	845.01 ± 0.16	–	820.4 ± 0.17	–	1326.2 ± 1	1272.1 ± 1	1218 ± 1	1165.3 ± 1
101 kPa, x1 = 0.3869	850.24 ± 0.19	838.05 ± 0.19	825.47 ± 0.19	–	–	1281.3 ± 1.1	1227.7 ± 1.1	–
101 kPa, x1 = 0.3946	–	–	–	–	1336.7 ± 1.1	–	–	–
101 kPa, x1 = 0.3947	–	–	–	812.99 ± 0.2	–	–	–	1174.8 ± 1.1
101 kPa, x1 = 0.4923	855.58 ± 0.23	843.28 ± 0.23	830.75 ± 0.23	–	–	–	–	–
101 kPa, x1 = 0.4925	–	–	–	817.72 ± 0.24	–	–	–	–
101 kPa, x1 = 0.4951	–	–	–	–	1345.4 ± 1.2	1290.3 ± 1.2	1236.5 ± 1.2	1183.1 ± 1.2
101 kPa, x1 = 0.5905	859.44 ± 0.29	–	834.56 ± 0.29	–	–	–	–	–
101 kPa, x1 = 0.5917	–	847.16 ± 0.29	–	821.54 ± 0.29	1350.8 ± 1.4	1295.7 ± 1.4	1242.2 ± 1.4	1189.7 ± 1.4
101 kPa, x1 = 0.6818	–	–	–	824.42 ± 0.34	–	–	–	–
101 kPa, x1 = 0.6847	–	–	–	–	1355.2 ± 1.5	1301 ± 1.5	1247.2 ± 1.5	1193.6 ± 1.5
101 kPa, x1 = 0.6895	862.58 ± 0.35	–	837.72 ± 0.35	–	–	–	–	–
101 kPa, x1 = 0.69	–	850.31 ± 0.35	–	–	–	–	–	–
101 kPa, x1 = 0.7653	–	852.26 ± 0.41	839.66 ± 0.4	826.67 ± 0.4	–	–	1250.9 ± 1.6	1197 ± 1.6
101 kPa, x1 = 0.7685	864.67 ± 0.41	–	–	–	1359 ± 1.7	1304.8 ± 1.7	–	–
101 kPa, x1 = 0.8735	866.97 ± 0.51	854.67 ± 0.5	842.05 ± 0.49	829.08 ± 0.48	1364.2 ± 1.8	1309.4 ± 1.8	1255.2 ± 1.8	1201.2 ± 1.8
101 kPa, x1 = 0.9296	868.12 ± 0.56	855.79 ± 0.55	843.14 ± 0.54	830.17 ± 0.53	1366.3 ± 1.9	1311.8 ± 1.9	1258 ± 1.9	1204.4 ± 1.9
101 kPa, x1 = 1	869.39 ± 0.63	857 ± 0.62	844.29 ± 0.61	831.31 ± 0.6	1370.6 ± 2	1315.1 ± 2	1260.8 ± 2	1207.6 ± 2
20000 kPa, x1 = 0.0582	833.8 ± 1.1	822.8 ± 1.1	811.8 ± 1.1	800.4 ± 1.1	–	–	–	–
20000 kPa, x1 = 0.1037	839.4 ± 1.1	828.4 ± 1.1	817.4 ± 1.1	806 ± 1.1	–	–	–	–
20000 kPa, x1 = 0.1803	847.1 ± 1	836.2 ± 1	825.1 ± 1	813.6 ± 1.1	–	–	–	–
20000 kPa, x1 = 0.3087	857.5 ± 1	846.3 ± 1	834.9 ± 1	823.4 ± 1.1	–	–	–	–
20000 kPa, x1 = 0.4104	863.5 ± 1	852.3 ± 1	840.7 ± 1.1	829.1 ± 1.1	–	–	–	–
20000 kPa, x1 = 0.4994	867.6 ± 1.1	856.4 ± 1.1	844.9 ± 1.1	833.2 ± 1.1	–	–	–	–
20000 kPa, x1 = 0.5939	871.3 ± 1.1	860 ± 1.1	848.4 ± 1.1	836.7 ± 1.1	–	–	–	–
20000 kPa, x1 = 0.7117	875.1 ± 1.1	863.7 ± 1.1	852.2 ± 1.1	840.5 ± 1.1	–	–	–	–
20000 kPa, x1 = 0.7777	876.8 ± 1.1	865.5 ± 1.1	853.9 ± 1.1	842.2 ± 1.1	–	–	–	–
20000 kPa, x1 = 0.8566	878.5 ± 1.1	867 ± 1.1	855.5 ± 1.1	843.8 ± 1.1	–	–	–	–
20000 kPa, x1 = 0.9405	880.2 ± 1.2	868.8 ± 1.2	857.3 ± 1.2	845.6 ± 1.2	–	–	–	–
20000 kPa, x1 = 1	881.2 ± 1.2	869.7 ± 1.2	858.1 ± 1.2	846.4 ± 1.2	–	–	–	–
25000 kPa, x1 = 0.0582	837 ± 1.1	826.1 ± 1.1	815.4 ± 1.1	804.3 ± 1.1	–	–	–	–
25000 kPa, x1 = 0.1037	842.5 ± 1.1	831.7 ± 1.1	820.9 ± 1.1	809.7 ± 1.1	–	–	–	–
25000 kPa, x1 = 0.1803	850.1 ± 1	839.3 ± 1	828.4 ± 1.1	817.1 ± 1.1	–	–	–	–
25000 kPa, x1 = 0.3087	860.5 ± 1	849.4 ± 1.1	838.3 ± 1.1	826.9 ± 1.1	–	–	–	–
25000 kPa, x1 = 0.4104	866.4 ± 1.1	855.4 ± 1.1	844.1 ± 1.1	832.7 ± 1.1	–	–	–	–
25000 kPa, x1 = 0.4994	870.5 ± 1.1	859.5 ± 1.1	848.1 ± 1.1	836.7 ± 1.1	–	–	–	–
25000 kPa, x1 = 0.5939	874.2 ± 1.1	863 ± 1.1	851.7 ± 1.1	840.2 ± 1.1	–	–	–	–
25000 kPa, x1 = 0.7117	877.9 ± 1.1	866.7 ± 1.1	855.4 ± 1.1	843.9 ± 1.1	–	–	–	–
25000 kPa, x1 = 0.7777	879.6 ± 1.1	868.5 ± 1.1	857.1 ± 1.1	845.6 ± 1.1	–	–	–	–
25000 kPa, x1 = 0.8566	881.3 ± 1.1	870 ± 1.2	858.7 ± 1.2	847.2 ± 1.2	–	–	–	–
25000 kPa, x1 = 0.9405	883 ± 1.2	871.8 ± 1.2	860.4 ± 1.2	848.9 ± 1.2	–	–	–	–
25000 kPa, x1 = 1	884 ± 1.2	872.7 ± 1.2	861.3 ± 1.2	849.8 ± 1.2	–	–	–	–
30000 kPa, x1 = 0.0582	839.8 ± 1.1	829.3 ± 1.1	818.7 ± 1.1	807.8 ± 1.1	–	–	–	–
30000 kPa, x1 = 0.1037	845.3 ± 1.1	834.9 ± 1.1	824.3 ± 1.1	813.3 ± 1.1	–	–	–	–
30000 kPa, x1 = 0.1803	852.9 ± 1.1	842.5 ± 1.1	831.7 ± 1.1	820.7 ± 1.1	–	–	–	–
30000 kPa, x1 = 0.3087	863.2 ± 1.1	852.5 ± 1.1	841.5 ± 1.1	830.4 ± 1.1	–	–	–	–
30000 kPa, x1 = 0.4104	869.1 ± 1.1	858.4 ± 1.1	847.2 ± 1.1	836 ± 1.1	–	–	–	–
30000 kPa, x1 = 0.4994	873.2 ± 1.1	862.4 ± 1.1	851.2 ± 1.1	840 ± 1.1	–	–	–	–
30000 kPa, x1 = 0.5939	876.8 ± 1.1	866 ± 1.1	854.8 ± 1.1	843.6 ± 1.1	–	–	–	–
30000 kPa, x1 = 0.7117	880.6 ± 1.1	869.7 ± 1.1	858.5 ± 1.1	847.2 ± 1.1	–	–	–	–
30000 kPa, x1 = 0.7777	882.2 ± 1.1	871.4 ± 1.1	860.2 ± 1.1	848.9 ± 1.1	–	–	–	–
30000 kPa, x1 = 0.8566	883.9 ± 1.2	872.9 ± 1.2	861.7 ± 1.2	850.4 ± 1.2	–	–	–	–
30000 kPa, x1 = 0.9405	885.6 ± 1.2	874.7 ± 1.2	863.4 ± 1.2	852.1 ± 1.2	–	–	–	–
30000 kPa, x1 = 1	886.6 ± 1.2	875.6 ± 1.2	864.3 ± 1.2	853 ± 1.2	–	–	–	–
35000 kPa, x1 = 0.0582	842.8 ± 1.1	832.4 ± 1.1	822.1 ± 1.1	811.3 ± 1.1	–	–	–	–
35000 kPa, x1 = 0.1037	848.3 ± 1.1	837.9 ± 1.1	827.5 ± 1.1	816.7 ± 1.1	–	–	–	–
35000 kPa, x1 = 0.1803	855.7 ± 1.1	845.4 ± 1.1	834.8 ± 1.1	823.9 ± 1.1	–	–	–	–
35000 kPa, x1 = 0.3087	866 ± 1.1	855.4 ± 1.1	844.6 ± 1.1	833.6 ± 1.1	–	–	–	–
35000 kPa, x1 = 0.4104	871.9 ± 1.1	861.2 ± 1.1	850.4 ± 1.1	839.3 ± 1.1	–	–	–	–
35000 kPa, x1 = 0.4994	875.9 ± 1.1	865.2 ± 1.1	854.3 ± 1.1	843.2 ± 1.1	–	–	–	–
35000 kPa, x1 = 0.5939	879.4 ± 1.1	868.7 ± 1.1	857.8 ± 1.1	846.7 ± 1.1	–	–	–	–
35000 kPa, x1 = 0.7117	883.2 ± 1.1	872.4 ± 1.1	861.5 ± 1.1	850.4 ± 1.1	–	–	–	–
35000 kPa, x1 = 0.7777	884.9 ± 1.1	874.1 ± 1.1	863.2 ± 1.1	852.1 ± 1.2	–	–	–	–
35000 kPa, x1 = 0.8566	886.5 ± 1.2	875.6 ± 1.2	864.7 ± 1.2	853.6 ± 1.2	–	–	–	–
35000 kPa, x1 = 0.9405	888.2 ± 1.2	877.3 ± 1.2	866.4 ± 1.2	855.2 ± 1.2	–	–	–	–
35000 kPa, x1 = 1	889.2 ± 1.2	878.3 ± 1.2	867.3 ± 1.2	856.2 ± 1.3	–	–	–	–
40000 kPa, x1 = 0.0582	845.5 ± 1.1	835.4 ± 1.1	825.1 ± 1.1	814.7 ± 1.1	–	–	–	–
40000 kPa, x1 = 0.1037	851.1 ± 1.1	840.9 ± 1.1	830.7 ± 1.1	820.1 ± 1.1	–	–	–	–
40000 kPa, x1 = 0.1803	858.4 ± 1.1	848.3 ± 1.1	837.9 ± 1.1	827.2 ± 1.1	–	–	–	–
40000 kPa, x1 = 0.3087	868.6 ± 1.1	858.3 ± 1.1	847.7 ± 1.1	836.9 ± 1.1	–	–	–	–
40000 kPa, x1 = 0.4104	874.6 ± 1.1	864 ± 1.1	853.3 ± 1.1	842.4 ± 1.1	–	–	–	–
40000 kPa, x1 = 0.4994	878.5 ± 1.1	867.9 ± 1.1	857.3 ± 1.1	846.4 ± 1.1	–	–	–	–
40000 kPa, x1 = 0.5939	882.1 ± 1.1	871.5 ± 1.1	860.7 ± 1.1	849.8 ± 1.1	–	–	–	–
40000 kPa, x1 = 0.7117	885.9 ± 1.1	875.1 ± 1.1	864.4 ± 1.1	853.5 ± 1.1	–	–	–	–
40000 kPa, x1 = 0.7777	887.5 ± 1.1	876.8 ± 1.2	866.1 ± 1.2	855.1 ± 1.2	–	–	–	–
40000 kPa, x1 = 0.8566	889.1 ± 1.2	878.3 ± 1.2	867.6 ± 1.2	856.6 ± 1.2	–	–	–	–
40000 kPa, x1 = 0.9405	890.8 ± 1.2	880 ± 1.2	869.2 ± 1.2	858.2 ± 1.2	–	–	–	–
40000 kPa, x1 = 1	891.8 ± 1.3	881 ± 1.3	870.2 ± 1.3	859.2 ± 1.3	–	–	–	–
